Data published in patent publication US5242942A, “Anticonvulsant fructopyranose cyclic sulfites and sulfates” (McNeilab, Inc., priority 1992, dated 1993).

Legend:
carbonic anhydrase = carbonic anhydrase inhibition, 18O-exchange mass spectrometry, disrupted hepatocytes; assay type: biochemical; conditions: 250 μM, disrupted male rat hepatocytes, 37° C., pH 7.4, 25 mM aqueous NaHCO3
Experimental: Compounds of formula (I) are also inhibitors of carbonic anhydrase, and as such, are useful in the treatment of glaucoma. Such activity may be determined by mass spectrometry using the ^18 O-exchange technique described by Dodgson and Forster in J. Appl. Physiol. 1983, 55, 1293. Specifically, this assay was conducted by first killing the male rats and then removing their livers. Their livers were placed in a cold physiological saline solution. The liver tissue was then minced with scissors and shaken in a protolytic enzyme solution to promote disassociation of the hepatocytes. The dissociated hepatocytes were then washed in a cold saline solution and used for determination of carbonic anhydrase activity.
[…] The continuous readout of the mass 44 peak gives a continuous record of the constancy of the pH of the reaction medium since the height of the mass 44 peak is very sensitive to pH. The pH of the medium was read from the pH meter and used to calibrate the mass 44 peaks at regular intervals.
An 8 mL glass chamber, with openings for a pH electrode and sample insertion, was used for continuous mass spectrophotometric measurement of C^16 O^16 O (mass 44) and C^16 O^18 O (mass 46) dissolved in aqueous bicarbonate buffer. […] The pH was constantly monitored by a combination glass pH electrode (Radiometer model gK 2641C). […]

rat diuresis study = assay type: in vivo, rat (male Wistar); conditions: 6.3 mg/kg PO, average of five animals
Description: Evidence for the inhibition of carbonic anhydrase by compounds of the formula (I) can also be obtained by a diuresis study, such as described by A. Weiner in Goodman and Gilman's The Pharmacological Basis of Therapeutics, 8th ed.; Goodman Gilman, A.; Rall, T. W.; Nies, A. S.; Taylor, P., Eds.; Pergamon Press: New York, 1990; pp 716-718. An increase in urine akalinity accompanied with an increase in water intake and urine output provides an indirect indication of carbonic anhydrase inhibition activity. Male Wistar rats having a weight of 250-300 g were dosed orally (PO) and housed in cages that allowed for the quantitative measure of fluid intake and urine output. Water intake and urine output were measured at 24 hours versus control, whereas urine pH, obtained via pH meter, was measured at 4 and 24 hours versus control. The results of this study, which are the average of five animals, are reported below in Table III. […] Such data is also an indication of the usefulness of the compounds of formula (I) as diuretics in the treatment of hypertension, congestive heart failure and other types of edema. The determination of suitable dosages for such compounds for the treatment of hypertension and congestive heart failure and other types of edema is within the skill of the art.

## CC1(C)O[C@H]2[C@@H]3OS(=O)(=O)O[C@@H]3CO[C@@]2(COS(N)(=O)=O)O1 [Example 1, 2,3-O-(1-Methylethylidene)-4,5-O-sulfonyl-β-D-fructopyranose Sulfamate]
Carbonic anhydrase
  inhibition of all hepatocyte carbonic anhydrase: Maximal inhibition
Rat diuresis study; 4 hours, control 6.98
  Urine pH: 8.99
Rat diuresis study; 24 hours, control 6.43
  Urine pH: 7.03
Rat diuresis study; 24 hours, control 15.0
  Water Intake: 24.0 mL
Rat diuresis study; 24 hours, control 17.6
  Urine Output: 28.3 mL
